For 10 compounds, IC50 results are on record in US8039493B2, “Biaryl sulfonamide derivatives” (Hoffmann-La Roche Inc., priority 2008, dated 2011).

Broadly, the IC50 is the concentration needed to halve the response being measured.

The target of one test is T1, human LXR alpha (Homo sapiens, UniProt Q13133).
T1 construct: human LXR alpha (aa 164 to 447); made in house; host or cells: E. coli BL21 (pLysS)
T1 sequence (Q13133 164-447): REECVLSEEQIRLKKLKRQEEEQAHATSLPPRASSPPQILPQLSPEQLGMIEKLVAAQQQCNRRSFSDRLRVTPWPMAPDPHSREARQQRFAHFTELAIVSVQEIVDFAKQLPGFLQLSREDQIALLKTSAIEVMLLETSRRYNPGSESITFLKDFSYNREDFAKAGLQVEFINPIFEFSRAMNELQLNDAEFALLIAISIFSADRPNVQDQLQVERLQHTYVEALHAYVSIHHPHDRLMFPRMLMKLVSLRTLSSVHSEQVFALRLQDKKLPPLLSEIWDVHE
Nature of the test: Radioligand binding assay (scintillation proximity), LXRα-LBD. Conditions: LXRα-LBD on SPA beads, read-out: LXRalpha Binding IC50. On the technique in general: In a scintillation proximity assay essentially only radioactivity close to the scintillant gives light.

The target in another test is T2, human LXR beta (Homo sapiens, UniProt P55055).
T2 construct: human LXR beta (aa 155 to 460); made in house; host or cells: E. coli BL21 (pLysS)
T2 sequence (P55055 155-460): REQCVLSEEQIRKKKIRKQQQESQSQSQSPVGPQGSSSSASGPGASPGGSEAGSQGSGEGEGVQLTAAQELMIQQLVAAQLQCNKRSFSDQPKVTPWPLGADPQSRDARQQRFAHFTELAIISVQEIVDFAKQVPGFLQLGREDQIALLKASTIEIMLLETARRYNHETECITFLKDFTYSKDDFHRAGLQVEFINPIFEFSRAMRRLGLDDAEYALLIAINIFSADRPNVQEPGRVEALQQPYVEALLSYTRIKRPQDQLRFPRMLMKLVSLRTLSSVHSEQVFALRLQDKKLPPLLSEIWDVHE
Nature of the test: Radioligand binding assay (scintillation proximity), LXR beta-LBD. Conditions: LXR beta-LBD on SPA beads, read-out: LXRbeta Binding IC50.

As for `CC(C)CN(Cc1ccnc(-c2cccc(S(C)(=O)=O)c2)c1)S(=O)(=O)c1ccccc1Cl` [Example 48, 2-Chloro-N-isobutyl-N-[2-(3-methanesulfonyl-phenyl)-pyridin-4-ylmethyl]-benzenesulfonamide], the IC50 came out at 7860 nM at human LXR alpha and 150 nM at human LXR beta.
The like results for `CCCN(Cc1cccc(-c2cccc(S(C)(=O)=O)c2)c1)S(=O)(=O)C(C)C` [Example 49, Propane-2-sulfonic acid (3′-methanesulfonyl-biphenyl-3-ylmethyl)-propyl-amide] were, in that order, 20100 nM and 1560 nM.
On to `CC(C)CN(Cc1cccc(-c2cccc(S(C)(=O)=O)c2)c1)S(=O)(=O)C(C)C` [Example 50, Propane-2-sulfonic acid isobutyl-(3′-methanesulfonyl-biphenyl-3-ylmethyl)-amide], for which the IC50 at human LXR alpha turned out to be 2270 nM; at human LXR beta, 805 nM.
As for `CC(C)S(=O)(=O)N(Cc1cccc(-c2cccc(S(C)(=O)=O)c2)c1)CC1CCC1` [Example 51, Propane-2-sulfonic acid cyclobutylmethyl-(3′-methanesulfonyl-biphenyl-3-ylmethyl)-amide], the IC50 at human LXR alpha stood at 1630 nM; on human LXR beta it was 280 nM.
Regarding `CC(C)S(=O)(=O)N(Cc1cccc(-c2cccc(S(C)(=O)=O)c2)c1)Cc1ccccc1F` [Example 52, Propane-2-sulfonic acid (2-fluoro-benzyl)-(3′-methanesulfonyl-biphenyl-3-ylmethyl)-amide], the half-maximal inhibitory concentration (IC50) was 610 nM at human LXR alpha and 33.5 nM at human LXR beta.
The corresponding values for `CC(C)S(=O)(=O)N(Cc1ccc(F)cc1)Cc1cccc(-c2cccc(S(C)(=O)=O)c2)c1` [Example 53, Propane-2-sulfonic acid (4-fluoro-benzyl)-(3′-methanesulfonyl-biphenyl-3-ylmethyl)-amide] are 2800 nM and 255 nM.
The corresponding values for `CC(C)CN(Cc1cc(-c2cccc(S(N)(=O)=O)c2)cs1)S(=O)(=O)c1ccccc1Cl` [Example 54, 2-Chloro-N-isobutyl-N-[4-(3-aminosulfonyl-phenyl)-thiophen-2-ylmethyl]-benzenesulfonamide] are 84.5 nM and 7.4 nM.
For `CC(C)CN(Cc1cc(-c2cncc(S(C)(=O)=O)c2)cs1)S(=O)(=O)c1ccccc1Cl` [Example 55, 2-Chloro-N-isobutyl-N-[4-(5-methanesulfonyl-pyridin-3-yl)-thiophen-2-ylmethyl]-benzenesulfonamide], the IC50 came out at 2530 nM at human LXR alpha and 83 nM at human LXR beta.
The corresponding values for `CC(C)CN(Cc1cc(-c2cccc(S(=O)(=O)NC(C)(C)C)c2)cs1)S(=O)(=O)c1ccccc1Cl` [Example 56, 2-Chloro-N-isobutyl-N-[4-(3-tert-butylaminosulfonyl-phenyl)-thiophen-2-ylmethyl]-benzenesulfonamide] are 17700 nM and 39100 nM.
The corresponding values for `CC(C)CN(Cc1ccc(-c2cccc(S(C)(=O)=O)c2)s1)S(=O)(=O)CC1CCCCC1` [Example 58, C-Cyclohexyl-N-isobutyl-N-[5-(3-methanesulfonyl-phenyl)-thiophen-2-ylmethyl]-methanesulfonamide] are 31700 nM and 1340 nM.
